Test results: ChEMBL document CHEMBL1158983, “Toxins Produced by the Dogwood Anthracnose Fungus Discula sp” (1991)
The source made the active and inactive calls. No cut-off for these calls is given here.

How the values were obtained:
Format in all cases: functional
Cornus florida [1] = test: Phytotoxicity against Dogwood NCPV 100 assessed as leaf necrotic lesions at 50 ug by detached leaf spot method
Cornus florida [2] = test: Phytotoxicity against Dogwood NCPV 101 assessed as leaf necrotic lesions at 50 ug by detached leaf spot method
Cornus florida [3] = test: Phytotoxicity against Dogwood NCPV 102 assessed as leaf necrotic lesions at 50 ug by detached leaf spot method
Senna obtusifolia = test: Phytotoxicity against Sicklepod assessed as leaf necrotic lesions at 100 ug by detached leaf spot method
Sida spinosa = test: Phytotoxicity against Prickly sida assessed as leaf necrotic lesions at 100 ug by detached leaf spot method
Convolvulaceae = test: Phytotoxicity against Morning glory assessed as leaf necrotic lesions at 100 ug by detached leaf spot method
Datura stramonium = test: Phytotoxicity against Jimsonweed assessed as leaf necrotic lesions at 100 ug by detached leaf spot method
Sorghum halepense = test: Phytotoxicity against Johnsongrass assessed as leaf necrotic lesions at 100 ug by detached leaf spot method
Sorghum = test: Phytotoxicity against Sorghum assessed as leaf necrotic lesions at 100 ug by detached leaf spot method
Chenopodium album = test: Phytotoxicity against Lamb's quarters assessed as leaf necrotic lesions at 100 ug by detached leaf spot method
Nasturtium officinale = test: Phytotoxicity against watercress assessed as leaf necrotic lesions at 100 ug by detached leaf spot method
Ambrosia artemisiifolia = test: Phytotoxicity against ragweed assessed as leaf necrotic lesions at 100 ug by detached leaf spot method
[4] = tested on: Agrobacterium tumefaciens; test: Antimicrobial activity against Agrobacterium tumefaciens at 500 ug/disk; conditions: for zone of inhibition at 500 µg/disc: read-out: IZ
[5] = tested on: Curtobacterium flaccumfaciens; test: Antimicrobial activity against Corynebacterium flaccumfaciens at 500 ug/disk; conditions: for zone of inhibition at 500 µg/disc: read-out: IZ
[6] = tested on: Pectobacterium carotovorum; test: Antimicrobial activity against Erwinia carotovora at 500 ug/disk; conditions: for zone of inhibition at 500 µg/disc: read-out: IZ
Escherichia coli = test: Antimicrobial activity against Escherichia coli at 500 ug/disk; conditions: for zone of inhibition at 500 µg/disc: read-out: IZ
Aspergillus flavus = test: Antimicrobial activity against Aspergillus flavus at 500 ug/disk; conditions: for zone of inhibition at 500 µg/disc: read-out: IZ
Colletotrichum acutatum = test: Antimicrobial activity against Colletotrichum acutatum at 500 ug/disk; conditions: for zone of inhibition at 500 µg/disc: read-out: IZ
Penicillium chrysogenum = test: Antimicrobial activity against Penicillium notatum at 500 ug/disk; conditions: for zone of inhibition at 500 µg/disc: read-out: IZ

Row | SMILES | Activity (Cornus florida [1]) [mm2] | Activity (Cornus florida [2]) [mm2] | Activity (Cornus florida [3]) [mm2] | Activity (Senna obtusifolia) [mm2] | Activity (Sida spinosa) [mm2] | Activity (Convolvulaceae) [mm2] | Activity (Datura stramonium) [mm2] | Activity (Sorghum halepense) [mm2] | Activity (Sorghum) [mm2] | Activity (Chenopodium album) [mm2] | Activity (Nasturtium officinale) [mm2] | Activity (Ambrosia artemisiifolia) [mm2] | Activity [4] | Activity [5] | Activity [6] | Activity (Escherichia coli) | Activity (Aspergillus flavus) | Activity (Colletotrichum acutatum) | Activity (Penicillium chrysogenum) | zone of inhibition at 500 µg/disc [4] [mm] | other results
1 | C[C@H]1Cc2cc(O)cc(O)c2C(=O)O1 | 7 | 14 | 10 | 20 | 40 | 24 | 24 | 34 | 40 | 14 | 36 | 60 | inactive | inactive | inactive | inactive | inactive | inactive | inactive | – | –
2 | CC(C)=CCc1cc(C(=O)O)ccc1O | 38 | 14 | 24 | 22 | 42 | 28 | 31 | 46 | 75 | 23 | 56 | 36 | – | – | – | – | – | – | – | 8 | zone of inhibition at 500 µg/disc [5]: 5 mm; zone of inhibition at 500 µg/disc [6]: 5 mm; zone of inhibition at 500 µg/disc (Escherichia coli): 0 mm; zone of inhibition at 500 µg/disc (Aspergillus flavus): 4 mm; zone of inhibition at 500 µg/disc (Colletotrichum acutatum): 8 mm; zone of inhibition at 500 µg/disc (Penicillium chrysogenum): 6 mm
3 | CC(=O)Oc1cc(O)c2c(c1)C[C@H](C)OC2=O | 2 | 1 | 1 | 14 | 34 | 13 | 18 | 24 | 24 | 6 | 31 | 30 | inactive | inactive | inactive | inactive | inactive | inactive | inactive | – | –
4 | O=C1CC[C@@H](O)c2cccc(O)c21 | 12 | 5 | 13 | 2 | 18 | 4 | 6 | 13 | 7 | 5 | 14 | 12 | inactive | inactive | inactive | inactive | inactive | inactive | inactive | – | –
5 | O=C(O)c1ccc(O)cc1 [PARABEN] | 11 | 10 | 5 | 10 | 31 | 15 | 12 | 22 | 19 | 9 | 17 | 15 | – | – | – | – | – | – | – | 0 | zone of inhibition at 500 µg/disc [5]: 9 mm; zone of inhibition at 500 µg/disc [6]: 0 mm; zone of inhibition at 500 µg/disc (Escherichia coli): 5 mm; zone of inhibition at 500 µg/disc (Aspergillus flavus): 0 mm; zone of inhibition at 500 µg/disc (Colletotrichum acutatum): 0 mm; zone of inhibition at 500 µg/disc (Penicillium chrysogenum): 0 mm
6 | CC(=O)Oc1ccc(C(=O)O)cc1CC=C(C)C | 51 | 23 | 42 | 18 | 36 | 19 | 22 | 51 | 73 | 8 | 48 | 38 | – | – | – | – | – | – | – | 6 | zone of inhibition at 500 µg/disc [5]: 10 mm; zone of inhibition at 500 µg/disc [6]: 4 mm; zone of inhibition at 500 µg/disc (Escherichia coli): 0 mm; zone of inhibition at 500 µg/disc (Aspergillus flavus): 5 mm; zone of inhibition at 500 µg/disc (Colletotrichum acutatum): 6 mm; zone of inhibition at 500 µg/disc (Penicillium chrysogenum): 5 mm
